Measurements published in patent publication US9593305B2, “Differentiation of pluripotent stem cells” (Janssen Biotech, Inc., priority 2008, dated 2017).

System: H1 human embryonic stem cells
Experiment: Compounds and growth factors with low dose activin A (Example 9, Table 9)
Format: cell-based
Method: Clusters of H1 human embryonic stem cells were grown on reduced growth factor […]™ (Invitrogen; Cat #356231)-coated tissue culture plastic. Cells were passaged using collagenase (Invitrogen; Cat #17104-019) treatment and gentle scraping, washed to remove residual enzyme, and plated with even dispersal at a ratio of 1:1 (surface area) on reduced growth factor […]™-coated 96-well black plates (Packard ViewPlates; PerkinElmer; Cat #6005182) using volumes of 100 μl/well. Cells were allowed to attach as clusters and then recover log phase growth over a 1 to 3 day period, feeding daily with MEF conditioned medium supplemented with 8 ng/ml bFGF (R&D Systems; Cat #233-FB). Plates were maintained at 37° C., 5% CO2 in a humidified box throughout the duration of assay.
Stocks of growth factors purchased from R&D Systems were EGF (Cat #236-EG), FGF4 (Cat #235-F4), PDGF-A (Cat #221-AA), PDGF-D (Cat #1159-SB), PDGF-A/B (Cat #222-AB), VEGF (Cat #293-VE), and GDF-8 (Cat #788-08). Activin A was purchased from PeproTech (Cat #). Muscimol was purchased from Tocris (Cat #0289). All growth factors were solubilized in PBS with 0.1% BSA (Sigma; Cat #A7888) and stored frozen at −80° C. Muscimol was solubilized in 100% DMSO (Sigma; Cat #D2650) and stored frozen at −80° C. The compounds were available as 5 mM stocks in 96-well plate format, solubilized in 100% DMSO and stored at −80° C. The compounds were further diluted to an intermediate concentration of 0.2 mM in 50 mM HEPES (Invitrogen; Cat #15630-080), 20% DMSO and stored at 4° C. All growth factors and inhibitors were prepared in a deep well, 96-well polypropylene plate, diluted to 5× intermediate stocks in DMEM:F12 base medium at the beginning of assay and stored at 4° C.
A secondary screening assay was conducted, testing in triplicate and feeding on alternate days over the four-day assay timeframe. Assays were initiated by aspirating culture medium from each well followed by three washes in PBS to remove residual growth factors and serum. Test volumes of 80 μl per well were added back containing DMEM:F12 base medium (Invitrogen; Cat #11330-032) supplemented with 0.625% FCS (HyClone; Cat #SH30070.03), 25 ng/ml Wnt3a (R&D Systems), 12.5 ng/ml activin A, and 3.125 μM compound plus 20 μl 5× stock of growth factor or small molecule to yield a final concentration of 0.5% FCS, 20 ng/ml Wnt3a, 10 ng/ml activin A, and 2.5 μM compound. All remaining growth factors were tested at a final assay concentration of 50 ng/ml (EGF, FGF4, PDGF-A, PDGF-A/B, VEGF), with the exception of GDF-8 used at 25 ng/ml. Final assay concentration of muscimol was 20 μM. Positive control wells (100 μl/well) contained the same base medium supplemented with 0.5% FCS, 20 ng/ml Wnt3a and 10 ng/ml (low dose) or 100 ng/ml (high dose) activin A. Negative control wells (100 μl/well) contained the same base medium with 0.5% FCS and 20 ng/ml Wnt3a, omitting activin A.
Positive control wells (100 μl/well) contained the same base medium supplemented with 2% FCS and 10 ng/ml or 100 ng/ml activin A, omitting Wnt3a. Negative control wells (100 μl/well) contained the same base medium with 2% FCS, omitting both activin A and Wnt3a.
At the conclusion of four-days of culture, assay plates were washed twice with PBS, fixed with 4% paraformaldehyde (Alexis Biochemical; Cat #ALX-350-011) at room temperature for 20 minutes, then washed three times with PBS and permeabilized with 0.5% Triton X-100 (Sigma; Cat #T8760-2) for 20 minutes at room temperature. Cells were washed again three times with PBS and blocked with 4% chicken serum (Invitrogen; Cat #16110082) in PBS for 30 minutes at room temperature. Primary antibody (goat anti-human SOX17; R&D Systems; cat #AF1924) was diluted 1:100 in 4% chicken serum and added to each well for one hour at room temperature. […]

[1] = 10 ng/ml AA + compound + EGF + FGF4 + PDGF-A + Muscimol + Wnt3a
[2] = 10 ng/ml AA + compound + EGF + FGF4 + PDGF-A + VEGF + PDGF-D + Muscimol + GDF8 + Wnt3a
[3] = 10 ng/ml AA + compound + EGF + FGF4 + PDGF-AB + VEGF + Wnt3a
[4] = 10 ng/ml AA + compound + EGF + FGF4 + PDGF-AB + Wnt3a
[5] = 10 ng/ml AA + compound + EGF + FGF4 + Wnt3a
[6] = 10 ng/ml AA + compound + EGF + Wnt3a
[7] = 10 ng/ml AA + compound + FGF4 + Wnt3a

CCN1CC(=O)NCCCc2cncc(c2)-c2ncnc(n2)Nc2cc(Cl)cc(c2)C1 [Compound 35, 10-Chloro-14-ethyl-3,5,7,14,17,23,27-heptaazatetracyclo[19.3.1.1˜2,6˜0.1˜8,12]Theptacosa-1(25), 2(27), 3,5,8(26), 9,11,21,23-nonaen-16-one]
Cell Number, % of positive control [1]: 62.29 % of positive control
Cell Number, Average Total Cell Number [1]: 3820
Sox17 Expression, % of positive control [1]: −1.46 % of positive control
Sox17 Expression, Average Total Intensity [1]: −1.67E+06
Cell Number, % of positive control [2]: 41.14 % of positive control
Cell Number, Average Total Cell Number [2]: 2522
Sox17 Expression, % of positive control [2]: −4.25 % of positive control
Sox17 Expression, Average Total Intensity [2]: −4.86E+06
Cell Number, % of positive control [3]: 56.74 % of positive control
Cell Number, Average Total Cell Number [3]: 3479
Sox17 Expression, % of positive control [3]: −3.46 % of positive control
Sox17 Expression, Average Total Intensity [3]: −3.96E+06
Cell Number, % of positive control [4]: 53.21 % of positive control
Cell Number, Average Total Cell Number [4]: 3263
Sox17 Expression, % of positive control [4]: −3.99 % of positive control
Sox17 Expression, Average Total Intensity [4]: −4.56E+06
Cell Number, % of positive control [5]: 44.10 % of positive control
Cell Number, Average Total Cell Number [5]: 2704
Sox17 Expression, % of positive control [5]: −3.65 % of positive control
Sox17 Expression, Average Total Intensity [5]: −4.17E+06
Cell Number, % of positive control [6]: 2.53 % of positive control
Cell Number, Average Total Cell Number [6]: 155
Sox17 Expression, % of positive control [6]: −6.84 % of positive control
Sox17 Expression, Average Total Intensity [6]: −7.82E+06
Cell Number, % of positive control [7]: 4.64 % of positive control
Cell Number, Average Total Cell Number [7]: 284
Sox17 Expression, % of positive control [7]: −6.59 % of positive control
Sox17 Expression, Average Total Intensity [7]: −7.54E+06
Cell Number, % of positive control (10 ng/ml AA + compound + Wnt3a): 2.83 % of positive control
Cell Number, Average Total Cell Number (10 ng/ml AA + compound + Wnt3a): 173
Sox17 Expression, % of positive control (10 ng/ml AA + compound + Wnt3a): −6.66 % of positive control
Sox17 Expression, Average Total Intensity (10 ng/ml AA + compound + Wnt3a): −7.61E+06

O=C1NCCCc2cncc(c2)-c2ncnc(n2)Nc2cc(Cl)cc(c2)CN2CCCC1C2 (stereo not shown) [Compound 37, 10-Chloro-3,5,7,14,20,26,31-heptaazapentacyclo[22.3.1.1˜2,6˜0.1˜8,12˜0.1˜14,18˜]hentriaconta-1(28), 2(31), 3,5,8(30), 9,11,24,26-nonaen-19-one]
Cell Number, % of positive control [1]: 59.34 % of positive control
Cell Number, Average Total Cell Number [1]: 4540
Sox17 Expression, % of positive control [1]: 0.83 % of positive control
Sox17 Expression, Average Total Intensity [1]: 9.23E+05
Cell Number, % of positive control [2]: 74.65 % of positive control
Cell Number, Average Total Cell Number [2]: 5711
Sox17 Expression, % of positive control [2]: 10.82 % of positive control
Sox17 Expression, Average Total Intensity [2]: 1.21E+07
Cell Number, % of positive control [3]: 62.31 % of positive control
Cell Number, Average Total Cell Number [3]: 4767
Sox17 Expression, % of positive control [3]: −0.46 % of positive control
Sox17 Expression, Average Total Intensity [3]: −5.16E+05
Cell Number, % of positive control [4]: 55.20 % of positive control
Cell Number, Average Total Cell Number [4]: 4223
Sox17 Expression, % of positive control [4]: −0.55 % of positive control
Sox17 Expression, Average Total Intensity [4]: −6.15E+05
Cell Number, % of positive control [5]: 45.77 % of positive control
Cell Number, Average Total Cell Number [5]: 3501
Sox17 Expression, % of positive control [5]: 0.50 % of positive control
Sox17 Expression, Average Total Intensity [5]: 5.60E+05
Cell Number, % of positive control [6]: 18.70 % of positive control
Cell Number, Average Total Cell Number [6]: 1431
Sox17 Expression, % of positive control [6]: −2.47 % of positive control
Sox17 Expression, Average Total Intensity [6]: −2.75E+06
Cell Number, % of positive control [7]: 51.37 % of positive control
Cell Number, Average Total Cell Number [7]: 3930
Sox17 Expression, % of positive control [7]: −1.69 % of positive control
Sox17 Expression, Average Total Intensity [7]: −1.88E+06
Cell Number, % of positive control (10 ng/ml AA + compound + Wnt3a): 10.34 % of positive control
Cell Number, Average Total Cell Number (10 ng/ml AA + compound + Wnt3a): 791
Sox17 Expression, % of positive control (10 ng/ml AA + compound + Wnt3a): −2.68 % of positive control
Sox17 Expression, Average Total Intensity (10 ng/ml AA + compound + Wnt3a): −2.99E+06
